The target in the assay is T1, human P2X7 receptor (Homo sapiens, UniProt Q99572).
T1 construct: expressed in transfected cells; host or cells: HEK293
T1 sequence (Q99572 1-595): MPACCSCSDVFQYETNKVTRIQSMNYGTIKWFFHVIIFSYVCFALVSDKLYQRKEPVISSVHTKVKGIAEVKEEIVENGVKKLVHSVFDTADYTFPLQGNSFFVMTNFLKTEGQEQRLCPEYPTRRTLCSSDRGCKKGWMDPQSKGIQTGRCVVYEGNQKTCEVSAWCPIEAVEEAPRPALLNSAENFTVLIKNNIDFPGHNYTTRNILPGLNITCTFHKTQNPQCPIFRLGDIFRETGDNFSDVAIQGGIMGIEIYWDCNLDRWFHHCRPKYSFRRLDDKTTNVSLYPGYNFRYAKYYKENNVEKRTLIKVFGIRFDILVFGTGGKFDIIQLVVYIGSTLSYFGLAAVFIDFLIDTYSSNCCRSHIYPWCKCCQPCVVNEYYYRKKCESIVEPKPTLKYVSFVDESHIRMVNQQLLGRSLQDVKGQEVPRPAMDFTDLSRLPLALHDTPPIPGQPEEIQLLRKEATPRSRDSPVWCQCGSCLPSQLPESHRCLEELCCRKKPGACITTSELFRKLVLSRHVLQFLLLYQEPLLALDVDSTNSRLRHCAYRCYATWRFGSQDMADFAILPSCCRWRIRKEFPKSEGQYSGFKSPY
In words: Ethidium Accumulation Assay. Format: cell-based. The conditions noted are these: HEK293 cells expressing human recombinant P2X7 receptors; blocking ATP (1 mM) responses; read-out: pIC50 for human P2X7 receptor antagonist activity in the Ethidium Accumulation Assay (converted). As to the method: Ethidium Accumulation Assay
Studies were performed using NaCl assay buffer of the following composition (in mM): 140 mM NaCl, HEPES 10, N-methyl-D-glucamine 5, KCl 5.6, D-glucose 10, CaCl2 0.5 (pH 7.4). HEK293 cells, expressing human recombinant P2X7 receptors, were grown in poly-L-lysine pretreated 96 well plates for 18-24 h. […] The cells were washed twice with 350 μl of assay buffer before addition of 50 μl of antagonist. The cells were then incubated at room temperature (19-21° C.) for 30 min before addition of ATP and ethidium (100 μM final assay concentration). The ATP concentration was chosen to be close to the EC80 for the receptor type and was 1 mM for studies on the human P2X7 receptor. Incubations were continued for 8 or 16 min and were terminated by addition of 25 μl of 1.3M sucrose containing 5 mM of the P2X7 receptor antagonist reactive black 5 (Aldrich). Cellular accumulation of ethidium was determined by measuring fluorescence (excitation wavelength of 530nm and emission wavelength of 620 nm) from below the plate with a Canberra Packard Fluorocount (Pangbourne, UK). Antagonist pIC50 values for blocking ATP responses were determined using iterative curve fitting techniques.

Molecules are shown by their SMILES. A value given as a limit tells only on which side of the number the result lay.

For the compound `Cc1cnn(C)c1CC(=O)NCc1cccc(C(F)(F)F)c1Cl` [Example 2, N-{[2-chloro-3-(trifluoromethyl)phenyl]methyl}-2-(1,4-dimethyl-1H-pyrazol-5-yl)acetamide], the IC50 is not above 100 nM.
Regarding `Cc1cnn(CC(F)(F)F)c1CC(=O)NCc1ccc(F)c(F)c1Cl` [Example 3, N-[(2-chloro-3,4-difluorophenyl)methyl]-2-[4-methyl-1-(2,2,2-trifluoroethyl)-1H-pyrazol-5-yl]acetamide], the IC50 was not above 100 nM.
Consider `Cc1cnn(C)c1CC(=O)NCc1ccc(F)c(F)c1Cl` [Example 4, N-[(2-chloro-3,4-difluorophenyl)methyl]-2-(1,4-dimethyl-1H-pyrazol-5-yl)acetamide], for which the IC50 is not above 100 nM.
The value for `Cn1nccc1CC(=O)NCc1cccc(C(F)(F)F)c1Cl` [Example 5, N-{[2-chloro-3-(trifluoromethyl)phenyl]methyl}-2-(1-methyl-1H-pyrazol-5-yl)acetamide] was not above 100 nM.
The value for `Cn1ncc(Cl)c1CC(=O)NCc1cccc(C(F)(F)F)c1Cl` [Example 6, 2-(4-chloro-1-methyl-1H-pyrazol-5-yl)-N-{[2-chloro-3-(trifluoromethyl)phenyl]methyl}acetamide] was not above 100 nM; that for `Cn1ncc(Br)c1CC(=O)NCc1cccc(C(F)(F)F)c1Cl` [Example 7, 2-(4-Bromo-1-methyl-1H-pyrazol-5-yl)-N-{[2-chloro-3-(trifluoromethyl)phenyl]methyl}acetamide] was not above 100 nM; that for `Cn1ncc(F)c1CC(=O)NCc1cccc(C(F)(F)F)c1Cl` [Example 8, N-{[2-chloro-3-(trifluoromethyl)phenyl]methyl}-2-(4-fluoro-1-methyl-1H-pyrazol-5-yl)acetamide] was not above 100 nM.
Turning to `Cc1cnn(C)c1CC(=O)NCc1ccc(Cl)cc1Cl` [Example 10], the IC50 was not above 100 nM.
The value for `Cn1ncc(Cl)c1CC(=O)NCc1ccc(F)cc1Cl` [Example 14, N-[(2-Chloro-4-fluorophenyl)methyl]-2-(4-chloro-1-methyl-1H-pyrazol-5-yl)acetamide] was not above 100 nM; that for `Cn1ncc(Cl)c1CC(=O)NCc1ccc(F)c(F)c1Cl` [Example 15, N-[(2-Chloro-3,4-difluorophenyl)methyl]-2-(4-chloro-1-methyl-1H-pyrazol-5-yl)acetamide] was not above 100 nM.
Turning to `Cn1ncc(Cl)c1CC(=O)NCc1ccc(Cl)cc1Cl` [Example 16, 2-(4-Chloro-1-methyl-1H-pyrazol-5-yl)-N-[(2,4-dichlorophenyl)methyl]acetamide], the IC50 was not above 100 nM.
Regarding `Cn1ncc(F)c1CC(=O)NCc1ccc(F)c(F)c1Cl` [Example 18, N-[(2-Chloro-3,4-difluorophenyl)methyl]-2-(4-fluoro-1-methyl-1H-pyrazol-5-yl)acetamide], the IC50 is not above 100 nM.
`Cn1ncc(F)c1CC(=O)NCc1ccc(Cl)cc1Cl` [Example 19, N-[(2,4-Dichlorophenyl)methyl]-2-(4-fluoro-1-methyl-1H-pyrazol-5-yl)acetamide]: the IC50 is not above 100 nM.
The value for `Cn1ncc(I)c1CC(=O)NCc1ccc(Cl)cc1Cl` [Example 20, N-[(2,4-Dichlorophenyl)methyl]-2-(4-iodo-1-methyl-1H-pyrazol-5-yl)acetamide] was not above 100 nM.

These data come from US20100056595A1, “Pyrazole Derivatives as P2X7 Modulators” (Glaxo Group Limited, priority 2007, published 2010).
